Experimental data from patent US20230117034A1, “PYRAZOLOTRIAZINES” (Bayer Aktiengesellschaft, priority 2019, published 2023).

Key:
[1] = system: CAL-120, human breast adenocarcinoma cells; experiment: Proliferation assay CAL-120 (crystal violet, 4 days); assay type: cell-based; conditions: Homo sapiens, CAL-120, 96 h, CAL-120 cells, median, read-out: Prolif-CAL-120, IC50-[mol/l] (median)
How it was run: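 Cells seeded at 4,000/well in medium with 10% FCS; after 24 h, compounds added at 0.01-10 µmol/L (0.1% DMSO) for 4 days. Glutaraldehyde-fixed, crystal violet-stained, absorbance at 595 nm normalized to zero-point plate (0%) and untreated cells (100%); IC50 by 4-parameter fit.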

[2] = biological target: T1, CDK2/CycE (Homo sapiens, UniProt P24941); experiment: CDK2/CycE kinase assay (TR-FRET, 2 mM ATP); assay type: biochemical; conditions: 2 mM ATP (high ATP); median; read-out: CDK2/CyclinE, 2 mM ATP (high ATP), IC50 (median)
T1 construct: purchased ProQinase GmbH (Freiburg, Germany); host or cells: insect cells (Sf9)
How it was run: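 GST-tagged human CDK2 and CycE from Sf9 cells, about 10 ng/ml, pre-incubated 15 min at 22 °C with compound in Tris/HCl pH 8.0 buffer. Reaction with 2 mM ATP and 0.75 µM biotinylated peptide for 25 min at 22 °C. Phospho-RB antibody TR-FRET (665/620 nm ratio) read after 1 h; data normalised to no-inhibitor and no-enzyme controls.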

[3] = biological target: T2, CDK12 (nuclear staining in CAL-120 cells) (Homo sapiens, UniProt Q9NYV4); experiment: CDK12 nuclear protein level: immunofluorescence/high content analysis (CAL-120); assay type: cell-based; conditions: for DC50: CAL-120 cells, 24 h, immunofluorescence, 50% reduction of nuclear CDK12 staining intensity, median, read-out: CDK12 degradation IF, DC50- [mol/l] (median); for (IC50 CDK12 high ATP) to (Degradation DC50 CDK12) ratio: ratio of IC50 CDK12 high ATP kinase assay to DC50 CDK12 degradation (IF, CAL-120)
T2 construct: endogenous in cells; host or cells: CAL-120 human breast cancer cells (DSMZ ACC 459)
How it was run: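 CAL-120 cells were treated with compound for 24 h at 37 °C, fixed with PFA and immunostained for CDK12. Nuclear CDK12 intensity was quantified by automated image analysis and normalized to DMSO and control. DC50 is the concentration giving 50% reduction of nuclear staining.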

T2 sequence (Q9NYV4 whole entry): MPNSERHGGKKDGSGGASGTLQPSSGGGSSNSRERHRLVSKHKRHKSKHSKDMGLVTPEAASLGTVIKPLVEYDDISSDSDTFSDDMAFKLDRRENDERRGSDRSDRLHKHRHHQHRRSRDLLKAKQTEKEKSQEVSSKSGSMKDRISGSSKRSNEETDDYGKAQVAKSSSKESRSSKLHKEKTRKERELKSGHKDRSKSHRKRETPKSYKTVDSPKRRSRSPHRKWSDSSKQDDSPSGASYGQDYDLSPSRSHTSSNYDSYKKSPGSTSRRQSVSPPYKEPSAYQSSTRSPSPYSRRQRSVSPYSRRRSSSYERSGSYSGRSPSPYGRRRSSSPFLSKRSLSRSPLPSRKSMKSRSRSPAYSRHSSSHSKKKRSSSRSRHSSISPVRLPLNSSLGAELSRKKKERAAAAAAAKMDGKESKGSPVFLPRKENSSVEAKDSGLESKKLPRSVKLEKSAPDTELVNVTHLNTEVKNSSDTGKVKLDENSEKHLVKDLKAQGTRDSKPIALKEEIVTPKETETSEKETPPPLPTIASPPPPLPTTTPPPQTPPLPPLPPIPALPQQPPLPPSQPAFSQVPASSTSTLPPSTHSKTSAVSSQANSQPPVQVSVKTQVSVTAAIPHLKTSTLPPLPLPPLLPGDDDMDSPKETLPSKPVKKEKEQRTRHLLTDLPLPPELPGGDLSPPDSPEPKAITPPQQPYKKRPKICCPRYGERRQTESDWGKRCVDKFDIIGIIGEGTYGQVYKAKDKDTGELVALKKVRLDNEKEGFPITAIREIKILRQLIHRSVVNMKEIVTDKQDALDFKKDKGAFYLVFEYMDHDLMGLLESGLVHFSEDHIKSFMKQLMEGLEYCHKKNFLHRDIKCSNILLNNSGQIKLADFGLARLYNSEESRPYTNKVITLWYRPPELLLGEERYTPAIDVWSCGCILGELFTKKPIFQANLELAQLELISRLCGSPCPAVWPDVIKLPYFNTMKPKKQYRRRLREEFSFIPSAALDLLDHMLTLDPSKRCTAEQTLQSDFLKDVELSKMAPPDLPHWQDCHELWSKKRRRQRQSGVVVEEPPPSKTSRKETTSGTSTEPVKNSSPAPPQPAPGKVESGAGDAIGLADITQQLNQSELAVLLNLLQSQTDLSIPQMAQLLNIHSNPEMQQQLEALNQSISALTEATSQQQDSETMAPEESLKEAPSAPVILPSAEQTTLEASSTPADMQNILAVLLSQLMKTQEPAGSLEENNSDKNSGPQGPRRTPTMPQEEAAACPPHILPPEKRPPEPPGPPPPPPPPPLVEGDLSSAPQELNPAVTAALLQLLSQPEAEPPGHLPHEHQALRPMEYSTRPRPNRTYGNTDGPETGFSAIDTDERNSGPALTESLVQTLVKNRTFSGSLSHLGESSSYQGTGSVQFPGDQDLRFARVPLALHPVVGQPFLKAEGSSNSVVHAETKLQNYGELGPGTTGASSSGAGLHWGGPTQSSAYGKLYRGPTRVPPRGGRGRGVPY
T2 sequence (O75909 whole entry partner): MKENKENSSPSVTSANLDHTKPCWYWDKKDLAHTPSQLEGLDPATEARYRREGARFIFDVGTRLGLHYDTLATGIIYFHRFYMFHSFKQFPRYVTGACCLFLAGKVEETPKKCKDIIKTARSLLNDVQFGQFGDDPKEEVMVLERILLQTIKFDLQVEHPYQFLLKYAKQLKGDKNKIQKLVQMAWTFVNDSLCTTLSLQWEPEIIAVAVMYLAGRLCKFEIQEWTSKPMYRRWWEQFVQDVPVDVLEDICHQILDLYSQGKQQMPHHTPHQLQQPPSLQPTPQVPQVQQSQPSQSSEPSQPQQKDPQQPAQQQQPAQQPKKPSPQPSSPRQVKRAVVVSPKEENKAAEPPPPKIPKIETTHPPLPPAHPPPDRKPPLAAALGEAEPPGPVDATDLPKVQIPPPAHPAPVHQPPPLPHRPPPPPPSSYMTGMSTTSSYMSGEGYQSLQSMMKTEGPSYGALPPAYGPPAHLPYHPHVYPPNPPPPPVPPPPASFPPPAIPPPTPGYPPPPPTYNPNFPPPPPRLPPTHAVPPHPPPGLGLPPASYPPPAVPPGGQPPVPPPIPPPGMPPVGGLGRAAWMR

Structure (SMILES) | IC50 [1] [nM] | IC50 [2] [nM] | DC50 [3] [nM] | (IC50 CDK12 high ATP) to (Degradation DC50 CDK12) ratio [3]
Brc1cnn2c(NCc3nc4ccccc4[nH]3)nc(OCCN3CCCC3)nc12 [Example 404, N-[(1H-benzimidazol-2-yl)methyl]-8-bromo-2-[2-(pyrrolidin-1-yl)ethoxy]pyrazolo[1,5-a][1,3,5]triazin-4-amine] | 189 | > 20000 | 114 | >175
FC(F)n1cc(-c2cnn3c(NCc4nc5ccccc5[nH]4)nc(N4CCOCC4)nc23)cn1 [Example 421, N-[(1H-benzimidazol-2-yl)methyl]-8-[1-(difluoromethyl)-1H-pyrazol-4-yl]-2-(morpholin-4-yl)pyrazolo[1,5-a][1,3,5]triazin-4-amine] | 38.3 | > 20000 | 21.6 | 397
FC(F)(F)c1cccc(-c2nnc(CNc3nc(N4CCOCC4)nc4c(Br)cnn34)[nH]2)c1 [Example 52, 8-bromo-2-(morpholin-4-yl)-N-({5-[3-(trifluoromethyl)phenyl]-4H-1,2,4-triazol-3-yl}methyl)pyrazolo[1,5-a][1,3,5]triazin-4-amine] | 23.3 | 2650 | 20.5 | 80
Brc1cnn2c(NCc3nnc(-c4ccccc4)[nH]3)nc(N3CCCCC3)nc12 [Example 49, 8-bromo-N-[(5-phenyl-4H-1,2,4-triazol-3-yl)methyl]-2-(piperidin-1-yl)pyrazolo[1,5-a][1,3,5]triazin-4-amine] | 44 | 2290 | 41.7 | 147
Fc1ccc2[nH]c(CNc3nc(N4CCN5CCC4CC5)nc4c(C(F)(F)F)cnn34)nc2c1F [Example 407, 2-(1,4-diazabicyclo[3.2.2]nonan-4-yl)-N-[(4,5-difluoro-1H-benzimidazol-2-yl)methyl]-8-(trifluoromethyl)pyrazolo[1,5-a][1,3,5]triazin-4-amine] | 0.927 | > 20000 | 2.31 | 306
Cc1cccc(-c2nnc(CNc3nc(N4CCOCC4)nc4c(Br)cnn34)[nH]2)c1 [Example 40, 8-bromo-N-{[5-(3-methylphenyl)-4H-1,2,4-triazol-3-yl]methyl}-2-(morpholin-4-yl)pyrazolo[1,5-a][1,3,5]triazin-4-amine] | 23.1 | 2110 | 4.58 | 532
Fc1cccc(-c2nnc(CNc3nc(N4CCOCC4)nc4c(Br)cnn34)[nH]2)c1 [Example 44, 8-bromo-N-{[5-(3-fluorophenyl)-4H-1,2,4-triazol-3-yl]methyl}-2-(morpholin-4-yl)pyrazolo[1,5-a][1,3,5]triazin-4-amine] | 1.46 | 1130 | 1.71 | 871
CN1CCN(c2nc(NCc3nc4cc(Cl)c(Cl)cc4[nH]3)n3ncc(-c4cnn(C)c4)c3n2)CC1 [Example 420, N-[(5,6-dichloro-1H-benzimidazol-2-yl)methyl]-2-(4-methylpiperazin-1-yl)-8-(1-methyl-1H-pyrazol-4-yl)pyrazolo[1,5-a][1,3,5]triazin-4-amine] | 209 | > 20000 | 80.6 | >248
N#Cc1cnn2c(NCc3nc4ccccc4[nH]3)nc(N3CCOCC3)nc12 [Example 43, 4-{[(1H-benzimidazol-2-yl)methyl]amino}-2-(morpholin-4-yl)pyrazolo[1,5-a][1,3,5]triazine-8-carbonitrile] | 131 | > 20000 | 9.58 | >1754
CN1CCN(c2nc(NCc3nc4c(F)c(F)ccc4[nH]3)n3ncc(CC(F)(F)F)c3n2)CC1 [Example 437, N-[(4,5-difluoro-1H-benzimidazol-2-yl)methyl]-2-(4-methylpiperazin-1-yl)-8-(2,2,2-trifluoroethyl) pyrazolo[1,5-a][1,3,5]triazin-4-amine] | 10.9 | > 20000 | 1.76 | >11369
CN1CCN(c2nc(NCc3nc4ccccc4[nH]3)n3ncc(CC(F)(F)F)c3n2)CC1 [Example 436, N-[(1H-benzimidazol-2-yl)methyl]-2-(4-methylpiperazin-1-yl)-8-(2,2,2-trifluoroethyl)pyrazolo [1,5-a][1,3,5]triazin-4-amine] | 108 | > 20000 | 14.7 | >1357
Brc1cnn2c(NCc3nc4ccccc4[nH]3)nc(OC3CCCCC3)nc12 [Example 406, N-[(1H-benzimidazol-2-yl)methyl]-8-bromo-2-(cyclohexyloxy)pyrazolo[1,5-a][1,3,5]triazin-4-amine] | 62.2 | 15000 | 125 | >160

Continued by falling IC50 [1], values first:

IC50 [1] [nM] | IC50 [2] [nM] | DC50 [3] [nM] | (IC50 CDK12 high ATP) to (Degradation DC50 CDK12) ratio [3] | Structure (SMILES)
268 | > 20000 | 105 | >191 | CN1CCN(c2nc(NCc3nc4c(F)c(F)ccc4[nH]3)n3ncc(-c4nccs4)c3n2)CC1 [Example 415, N-[(4,5-difluoro-1H-benzimidazol-2-yl)methyl]-2-(4-methylpiperazin-1-yl)-8-(1,3-thiazol-2-yl)pyrazolo[1,5-a][1,3,5]triazin-4-amine]
151 | > 20000 | 43.1 | >464 | COC(C)(C)COc1nc(NCc2nc3ccccc3[nH]2)n2ncc(Br)c2n1 [Example 403, N-[(1H-benzimidazol-2-yl)methyl]-8-bromo-2-(2-methoxy-2-methylpropoxy)pyrazolo[1,5-a][1,3,5]triazin-4-amine]
120 | 12600 | 20.7 | >276 | Brc1cnn2c(NCc3nc4ccccc4[nH]3)nc(N3CC4(COC4)C3)nc12 [Example 48, N-[(1H-benzimidazol-2-yl)methyl]-8-bromo-2-(2-oxa-6-azaspiro[3.3]heptan-6-yl)pyrazolo[1,5-a][1,3,5]triazin-4-amine]
89.1 | 5370 | 69.2 | 32 | Clc1ccc(-c2nnc(CNc3nc(N4CCOCC4)nc4c(Br)cnn34)[nH]2)cc1 [Example 45, 8-bromo-N-{[5-(4-chlorophenyl)-4H-1,2,4-triazol-3-yl]methyl}-2-(morpholin-4-yl)pyrazolo[1,5-a][1,3,5]triazin-4-amine]
67.4 | 10400 | 66.2 | 221 | CC(C)(O)COc1nc(NCc2nc3ccccc3[nH]2)n2ncc(Br)c2n1 [Example 398, 1-[(4-{[(1H-benzimidazol-2-yl)methyl]amino}-8-bromopyrazolo[1,5-a][1,3,5]triazin-2-yl)oxy]-2-methylpropan-2-ol]
4.73 | > 20000 | 6.41 | 682 | Cc1cnn2c(NCc3nc4c(F)c(F)ccc4[nH]3)nc(N3CCOCC3)nc12 [Example 392, N-[(4,5-difluoro-1H-benzimidazol-2-yl)methyl]-8-methyl-2-(morpholin-4-yl)pyrazolo[1,5-a][1,3,5]triazin-4-amine]
